From patent US20140378378A1, “ERYTHROPOIETIN-DERIVED PEPTIDE AND USE THEREFOR” (priority 2011, published 2014) come the findings set out here.

For the experiment, the system named is neurocytes. Description: Cell survival of neurocytes after serum removal, with or without 0.1% 2-mercaptoethanol, 72 hours. Type of experiment: cell-based, rat. From the text:
A rat pregnant for […] was cervically dislocated to sacrifice the experimental animal and the abdomen of the experimental animal was excised in an U-shape to expose the uterus in which a fetus was located. Thereafter, the fetus was taken out from the uterus and then inserted into a fetus washing medium and then washed three times. Only the head of the fetus was cut and then inserted into the fetus washing medium to wash the head three times and then the cranium of the fetus was broken to separate the brain therefrom. A knife was used to cut the cortex of the brain and tissues of the cortex were thoroughly chopped, which were then collected in the already prepared fetus washing medium. After centrifuging at 400 g for 4 minutes, a supernatant was removed therefrom and then 0.025% of trypsin and 10 ml of DNase1 were added to the pellets to break the pellets. The mixture was stored in an incubator for 15 minutes.
Thereafter, 15 ml of a cell culture medium was added thereto again, centrifuged at 400 g for 4 minutes, a supernatant was removed therefrom to obtain pellets, which were washed twice with 6 ml of a washing medium (including DNase 1), and then centrifuged again at 400 g for 4 minutes. After the centrifugation, the supernatant solution was removed again to obtain pellets, 10 ml of the culture medium was added to the pellets and a mixture obtained therefrom was mixed with 10 ul of trypan blue to count the cells by using a hemocytometer. In a 24-well plate, 500 ul of the cells were seeded in each well and then cultured for 48 hours. Thereafter, the culture medium was removed from the well plate for stabilization, a new cell culture medium and 5 uM Ara-c (cytosine arabinoside, sigma, C1768) were added thereto, cultured for […], the culture medium was removed again after 24 hours, a new culture medium was added thereto, and then cultured in an incubator having conditions of […], 5% CO2, and a temperature of 37° C. for the next experiment.
In a 96-well plate, cells were inoculated at a density of 2×10^4 cells/well and in an amount of 200 ul for each well. In this regard, cell confluence was set to be about 70% to about 80%. After 24 hours, when the cells have stabilized, a 26 or 28 gauge needle was used to remove a pre-existing medium from the wells. […]

In the case of “EPO: erythropoietin; the EPO used was an Eporon injection (Dong-A Pharmaceuticals, Korea)”, the cell survival rate was 41.64% (EPO 1 IU/ml, serum removed, no 2-mercaptoethanol, 72 hours, normal culture = 100%); 6.98% (EPO 1 U/ml, after exposure to 0.1% 2-mercaptoethanol for 18 hours); 48.57% (EPO 10 IU/ml, serum removed, no 2-mercaptoethanol, 72 hours, normal culture = 100%); 11.70% (EPO 10 U/ml, after exposure to 0.1% 2-mercaptoethanol for 18 hours).
